We go through one substance from patent US20040138272A1, “1,4-Substituted cyclohexane derivatives” (priority 2002, published 2004).

One test has as its target T1, ROCK II (Rattus norvegicus, UniProt Q62868).
T1 construct: purchased Upstate (Lake Placid, N.Y.)
Put plainly: ROCK II kinase assay with [γ-32P] ATP and myelin basic protein substrate (FIG. 3). As to conditions: 100 μM ATP, 30 min at 30° C. Type of test: biochemical. An excerpt:
The ability of compounds to inhibit ROK activity may be tested in a cell-free assay system using recombinant ROK, radiaoactive ATP, and Myelin basic Protein (MBP). MBP is a highly phosphorylated protein, is inexpensive to buy in purified form, is phosphorylated by ROK, and is used as the assay substrate for phosphorylation. Recombinant ROK has been prepared from a number of sources. Overexpression in mammalian cells provides a convenient, easily renewed source of ROK activity. Measurement of Rho-associated kinase (ROK) activity is important to determine the potency of novel inhibitors. MBP is a substrate for ROK and a number of other protein kinases, making it useful both to quantitate ROK activity and to indicate the potency and specificity of novel inhibitors for ROK. […]
ROCK II was assayed in 20 mM MOPS, pH 7.2, 25 mM β-glycerophosphate, 5 mM EGTA, 1 mM sodium orthovanadate, 1 mM dithiothreitol with dephosphorylated myelin basic protein (MBP, 0.2 mg/ml) as substrate with or without BA-1016 or BA-1017. […] Assays were initiated by adding Mg^2+/ATP and terminated by spotting 40 μl of each reaction onto phosphocellulose paper (P81 paper, Whatman), followed by washes in 0.75% phosphoric acid to remove ATP and then dried, put in scintillation cocktail and counted to measure ^32P incorporation. Radioactivity is measured using a scintillation counter. […]

In test [1] the test system is PC12 cells on MAG substrates. The test can be described thus: Bioassay of PC12 neurite growth on growth inhibitory myelin-associated glycoprotein (MAG) substrates. Format: cell-based. How it is done: PC-12 cells (ATCC CRL-1721) typically extend neurites in response to NGF, but when plated on inhibitory substrates, this outgrowth is inhibited and the cells remain round. We tested the ability of the new compound to grow neurites when plated on inhibitory substrates.
We used PC12 cells obtained from the American Type Culture Collection. PC12 cells were grown in Dulbecco's modified eagle's medium (DMEM) with 10% horse serum and 5% fetal bovine serum. To test compounds for the ability to overcome growth inhibition, PC12 cells were collected by detaching with trypsin-EDTA (0.05%), then resuspended in DMEM, 1% FBS, and 50 ng/ml nerve growth factor before plating on MAG substrates. MAG used for substrates was purified from myelin after extraction in 1% octylglucoside and separation by ion exchange chromatography (McKerracher et al. 1994, Neuron 13:805-811). Test substrates were prepared as uniform substrates in 96-well plates by drying overnight in the laminar flow hood (Nalge Nunc, Naperville, Ill.). Plates were precoated with polylysine (100 μg/ml) for 3 hours at 37° C., then washed and dried approx. 1 hour. MAG was prepared as a substrate by drying down 8 μg of protein overnight. After plating on the MAG substrate, the cells were grown at 37 C. for two days in the presence or absence of test compound (BA1003, BA1016, BA1017) to allow neurite growth. Polylysine substrates were used as a positive control. Quantitative analysis of neurite outgrowth was with the aid of Northern Eclipse software (Empix Imaging, Mississauga, Ontario). Data analysis and statistics were with Microsoft Excel.
Referring to FIG. 4 there is shown a graph illustrative of experiments performed in triplicate testing the ability of BA-1003, BA-1016 and BA-1017 to overcome growth inhibition by MAG. PC12 cells were plated on MAG substrates alone (MAG) or MAG substrates in the presence of 0.31 uM, 3.1 um or 31 um concentrations of the test compound. The numbers of neurons that grew neurites were scored, and are shown as the percentage of neurite growth.

“Also recorded” adds a separate entry of the source.

T1 sequence (Q62868 11-550 limits assumed): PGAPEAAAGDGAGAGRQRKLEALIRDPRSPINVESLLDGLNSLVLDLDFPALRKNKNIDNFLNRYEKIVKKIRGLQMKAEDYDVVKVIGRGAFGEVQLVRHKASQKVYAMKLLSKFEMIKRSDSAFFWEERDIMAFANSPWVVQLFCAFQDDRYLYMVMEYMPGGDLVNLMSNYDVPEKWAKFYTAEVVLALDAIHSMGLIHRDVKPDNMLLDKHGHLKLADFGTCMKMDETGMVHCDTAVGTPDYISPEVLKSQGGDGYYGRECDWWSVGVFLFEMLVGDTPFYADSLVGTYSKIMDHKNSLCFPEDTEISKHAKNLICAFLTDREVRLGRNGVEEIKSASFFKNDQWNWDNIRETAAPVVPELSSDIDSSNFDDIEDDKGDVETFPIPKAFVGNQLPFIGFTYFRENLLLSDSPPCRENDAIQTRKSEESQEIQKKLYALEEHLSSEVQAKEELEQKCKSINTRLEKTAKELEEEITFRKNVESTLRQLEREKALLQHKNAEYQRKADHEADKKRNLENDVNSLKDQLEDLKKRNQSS

Consider “(R)-trans-4-(But-3′-en-1′-amino)-N-(4″-pyridyl)cyclohexane Carboxamide Dihydrochloride [BA-1016]”, for which the “inhibition of ROCKII activity (FIG. 3)” value against ROCK II was “inhibition of ROCKII activity”. Also, the “neurite outgrowth on MAG substrates at the lowest concentration tested” value in test [1] (PC12 cells, 0.31 uM) is “better neurite outgrowth”. In addition, the “neurite outgrowth on inhibitory MAG substrates (FIG. 4)” value in test [1] (PC12 cells, 0.31, 3.1 or 31 uM, Dihydrochloride) is “can promote neurite outgrowth; also recorded: able to overcome growth inhibition by MAG”.
